The text below walks through data of US11524966B1 (Valo Early Discovery, Inc., priority 2017, dated 2022).

This test concerns the target T1, USP25 (USP25-His6, Boston Biochem E-546) (Homo sapiens, UniProt Q9UHP3).
T1 construct: His6; purchased Boston Biochem E-546
T1 sequence (Q9UHP3 1-1055): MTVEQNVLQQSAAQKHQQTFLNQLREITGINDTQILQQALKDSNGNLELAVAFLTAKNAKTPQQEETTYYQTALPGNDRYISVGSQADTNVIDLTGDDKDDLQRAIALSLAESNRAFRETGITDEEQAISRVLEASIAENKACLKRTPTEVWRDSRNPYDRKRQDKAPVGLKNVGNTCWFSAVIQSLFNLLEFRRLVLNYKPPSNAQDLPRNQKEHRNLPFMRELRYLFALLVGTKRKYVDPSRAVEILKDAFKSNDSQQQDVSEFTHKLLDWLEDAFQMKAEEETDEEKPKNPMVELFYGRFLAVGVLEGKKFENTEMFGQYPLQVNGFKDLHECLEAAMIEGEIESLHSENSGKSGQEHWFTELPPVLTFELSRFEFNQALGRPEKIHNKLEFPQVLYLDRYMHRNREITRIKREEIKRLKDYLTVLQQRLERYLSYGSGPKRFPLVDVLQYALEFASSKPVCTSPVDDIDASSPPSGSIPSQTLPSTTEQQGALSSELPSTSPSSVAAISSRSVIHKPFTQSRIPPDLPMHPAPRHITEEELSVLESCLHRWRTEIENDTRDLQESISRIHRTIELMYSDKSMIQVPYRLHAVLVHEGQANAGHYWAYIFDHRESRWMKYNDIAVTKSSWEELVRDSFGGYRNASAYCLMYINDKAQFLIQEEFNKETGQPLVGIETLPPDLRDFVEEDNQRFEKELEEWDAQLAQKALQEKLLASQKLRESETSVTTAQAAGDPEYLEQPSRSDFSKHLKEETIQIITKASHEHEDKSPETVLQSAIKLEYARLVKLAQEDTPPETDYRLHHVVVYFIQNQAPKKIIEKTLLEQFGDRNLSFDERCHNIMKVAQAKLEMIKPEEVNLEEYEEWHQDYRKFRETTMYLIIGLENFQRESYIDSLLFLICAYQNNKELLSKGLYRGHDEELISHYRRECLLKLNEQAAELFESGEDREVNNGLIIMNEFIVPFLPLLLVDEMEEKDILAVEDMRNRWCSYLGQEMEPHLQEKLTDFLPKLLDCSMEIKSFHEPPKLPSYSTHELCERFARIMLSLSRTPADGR
Briefly: Ubiquitin-Rhodamine 110 Assay for USP25 Activity, Example A-2. The settings on record: Ubiquitin-Rhodamine 110 assay, Example A-2; read-out: USP25 A-2 IC50 range. The test is classed as biochemical. The gist of the method:
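Read-out: Rh110 fluorescence (ex 485, em 535 nm) after 45 min RT turnover of 25 nM Ub-Rh110 by 75 pM USP25-His6, quenched with 10 mM citric acid. Compounds at 25 μM–1.3 nM, preincubated 30 min with enzyme. IC50 from 4-parameter logistic fit.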

Consider `Cc1ccc2c(N)c(C(=O)N[C@@H]3Cc4ccc(N5CCNCC5)nc4[C@@H](C)C3)sc2n1` (single isomer, unassigned) [Example 205], for which the half-maximal inhibitory concentration (IC50) is greater than 2000 nM.

On to `Cc1cc(C)c2c(N)c(C(=O)N[C@H]3COc4cc(N5CC[C@H]6CNC[C@H]65)cc(F)c4C3)sc2n1` (single isomer, unassigned) [Example 222], for which the concentration for half-maximal inhibition (IC50) was 50 to 200 nM.

With `Cc1cc(C)c2c(N)c(C(=O)N[C@H]3COc4cc(N5CC[C@@H]6CNC[C@@H]65)cc(F)c4C3)sc2n1` (single isomer, unassigned) [Example 223], the IC50 lay in the range of 50 to 200 nM.

For `CO[C@H]1CN(c2cc3c(cc2C#N)C[C@@H](NC(=O)c2sc4nc(C)ccc4c2N)CO3)C[C@@H]1N` [Example 177, 3-amino-N-[(3R)-7-[(3S,4S)-3-amino-4-methoxypyrrolidin-1-yl]-6-cyano-3-4-dihydro-2H-1-benzopyran-3-yl]-6-methylthieno[2,3-b]pyridine-2-carboxamide], the concentration for half-maximal inhibition (IC50) lay within 50 to 200 nM.

Turning to `CO[C@H]1CN(c2ccc3c(c2C#N)CC[C@H](NC(=O)c2sc4nc(C)ccc4c2N)C3)C[C@@H]1N` [Example 178, 3-amino-N-[(2S)-6-[(3S,4S)-3-amino-4-methoxypyrrolidin-1-yl]-5-cyano-1,2,3,4-tetrahydronaphthalen-2-yl]-6-methylthieno[2,3-b]pyridine-2-carboxamide], the IC50 lay in the range of 200 to 2000 nM.

Turning to `CO[C@H]1CN(c2ccc3c(n2)OC[C@H](NC(=O)c2sc4nc(C)cnc4c2N)C3)C[C@@H]1N` [Example 181, 7-amino-N-[(3R)-7-[(3S,4S)-3-amino-4-methoxypyrrolidin-1-yl]-2H,3H,4H-pyrano[2,3-b]pyridin-3-yl]-3-methylthieno[2,3-b]pyrazine-6-carboxamide], the IC50 is greater than 2000 nM.

Turning to `CCO[C@H]1CN(c2ccc3c(n2)OC[C@H](NC(=O)c2sc4nc(C)cnc4c2N)C3)C[C@@H]1N` [Example 182, 7-amino-N-[(3R)-7-[(3S,4S)-3-amino-4-ethoxypyrrolidin-1-yl]-2H,3H,4H-pyrano[2,3-b]pyridin-3-yl]-3-methylthieno[2,3-b]pyrazine-6-carboxamide], the IC50 was greater than 2000 nM.

As to `CO[C@H]1CN(c2nc3c(cc2F)C[C@@H](NC(=O)c2sc4nc(C)ccc4c2N)CC3)C[C@@H]1N` [Example 183, 3-amino-N-[(6S)-2-[(3S,4S)-3-amino-4-methoxypyrrolidin-1-yl]-3-fluoro-5,6,7,8-tetrahydroquinolin-6-yl]-6-methylthieno[2,3-b]pyridine-2-carboxamide], the IC50 is greater than 2000 nM.

For `Cc1ccc2c(N)c(C(=O)N[C@H]3COc4cc(N5CCO[C@H]6CNC[C@H]65)ccc4C3)sc2n1` [Example 184, N-[(3R)-7-[(4aR, 7aS)-octahydropyrrolo[3,4-b]morpholin-4-yl]-3,4-dihydro-2H-1-benzopyran-3-yl]-3-amino-6-methylthieno[2,3-b]pyridine-2-carboxamide], the half-inhibitory concentration (IC50) was in the range of 50 to 200 nM.

As for `Cc1ccc2c(N)c(C(=O)N[C@H]3COc4cc(N5CCO[C@@H]6CNC[C@@H]65)ccc4C3)sc2n1` [Example 185, N-[(3R)-7-[(4aS,7aR)-octahydropyrrolo[3,4-b]morpholin-4-yl]-3,4-dihydro-2H-1-benzopyran-3-yl]-3-amino-6-methylthieno[2,3-b]pyridine-2-carboxamide], the concentration for half-maximal inhibition (IC50) was in the range of 50 to 200 nM.

For `CO[C@H]1CN(c2ccc3c(c2)CC[C@H](NC(=O)c2cnc4c(c2)C2CC2CN4)C3)C[C@@H]1N` (stereo partly drawn) [Example 188, N-[(2S)-6-[(3S,4S)-3-amino-4-methoxypyrrolidin-1-yl]-1,2,3,4-tetrahydronaphthalen-2-yl]-5H,6H,6aH,7H,7aH-cyclopropa[c]1,8-naphthyridine-2-carboxamide], the IC50 was greater than 2000 nM.

As for `CO[C@H]1CN(c2ccc3c(c2)CC[C@H](NC(=O)c2cnc4c(c2)[C@@H]2C[C@@H]2CN4)C3)C[C@@H]1N` [Example 189, (6aS,7aR)-N-[(2S)-6-[(3S,4S)-3-amino-4-methoxypyrrolidin-1-yl]-1,2,3,4-tetrahydronaphthalen-2-yl]-5H,6H,6aH,7H,7aH-cyclopropa[c]1,8-naphthyridine-2-carboxamide], the concentration for half-maximal inhibition (IC50) is greater than 2000 nM.

Regarding `CO[C@H]1CN(c2ccc3c(c2)CC[C@H](NC(=O)c2cnc4c(c2)[C@H]2C[C@H]2CN4)C3)C[C@@H]1N` [Example 190, (6aR,7aS)-N-[(2S)-6-[(3S,4S)-3-amino-4-methoxypyrrolidin-1-yl]-1,2,3,4-tetrahydronaphthalen-2-yl]-5H,6H,6aH,7H,7aH-cyclopropa[c]1,8-naphthyridine-2-carboxamide], the IC50 was greater than 2000 nM.

As for `O=C(N[C@H]1CCc2cc(N3CC4CCC(C3)N4)cc(F)c2C1)c1cnc2c(c1)[C@@H]1C[C@@H]1CN2` [Example 191, (6aS,7aR)-N-[(2S)-6-{3,8-diazabicyclo[3.2.1]octan-3-yl}-8-fluoro-1,2,3,4-tetrahydronaphthalen-2-yl]-5H,6H,6aH,7H,7aH-cyclopropa[c]1,8-naphthyridine-2-carboxamide], the IC50 is greater than 2000 nM.

Take `O=C(N[C@H]1CCc2cc(N3CC4CCC(C3)N4)cc(F)c2C1)c1cnc2c(c1)[C@H]1C[C@H]1CN2` [Example 192, (6aR,7aS)-N-[(2S)-6-{3,8-diazabicyclo[3.2.1]octan-3-yl}-8-fluoro-1,2,3,4-tetrahydronaphthalen-2-yl]-5H,6H,6aH,7H,7aH-cyclopropa[c]1,8-naphthyridine-2-carboxamide]: the half-inhibitory concentration (IC50) was in the range of 50 to 200 nM.

With `O=C(N[C@@H]1CCc2cc(N3CC4CCC(C3)N4)cc(F)c2C1)c1cnc2c(c1)[C@@H]1C[C@@H]1CN2` [Example 193, (6aS,7aR)-N-[(2R)-6-{3,8-diazabicyclo[3.2.1]octan-3-yl}-8-fluoro-1,2,3,4-tetrahydronaphthalen-2-yl]-5H,6H,6aH,7H,7aH-cyclopropa[c]1,8-naphthyridine-2-carboxamide], the IC50 is greater than 2000 nM.

As for `O=C(N[C@@H]1CCc2cc(N3CC4CCC(C3)N4)cc(F)c2C1)c1cnc2c(c1)[C@H]1C[C@H]1CN2` [Example 194, (6aR,7aS)-N-[(2R)-6-{3,8-diazabicyclo[3.2.1]octan-3-yl}-8-fluoro-1,2,3,4-tetrahydronaphthalen-2-yl]-5H,6H,6aH,7H,7aH-cyclopropa[c]1,8-naphthyridine-2-carboxamide], the IC50 lay in the range of 200 to 2000 nM.

With `N#Cc1c(N2CC3CCC(C2)N3)cc(F)c2c1CC[C@H](NC(=O)c1cnc3c(c1)[C@@H]1C[C@@H]1CN3)C2` [Example 195, (6aS,7aR)-N-[(2S)-5-cyano-6-{3,8-diazabicyclo[3.2.1]octan-3-yl}-8-fluoro-1,2,3,4-tetrahydronaphthalen-2-yl]-5H,6H,6aH,7H,7aH-cyclopropa[c]1,8-naphthyridine-2-carboxamide], the 50% inhibitory concentration (IC50) was 50 to 200 nM.

For the compound `N#Cc1c(N2CC3CCC(C2)N3)cc(F)c2c1CC[C@H](NC(=O)c1cnc3c(c1)[C@H]1C[C@H]1CN3)C2` [Example 196, (6aR,7aS)-N-[(2S)-5-cyano-6-{3,8-diazabicyclo[3.2.1]octan-3-yl}-8-fluoro-1,2,3,4-tetrahydronaphthalen-2-yl]-5H,6H,6aH,7H,7aH-cyclopropa[c]1,8-naphthyridine-2-carboxamide], the IC50 was greater than 2000 nM.

`N#Cc1c(N2CC3CCC(C2)N3)cc(F)c2c1CC[C@@H](NC(=O)c1cnc3c(c1)[C@@H]1C[C@@H]1CN3)C2` [Example 197, (6aS,7aR)-N-[(2R)-5-cyano-6-{3,8-diazabicyclo[3.2.1]octan-3-yl}-8-fluoro-1,2,3,4-tetrahydronaphthalen-2-yl]-5H,6H,6aH,7H,7aH-cyclopropa[c]1,8-naphthyridine-2-carboxamide]: the IC50 was greater than 2000 nM.

With `N#Cc1c(N2CC3CCC(C2)N3)cc(F)c2c1CC[C@@H](NC(=O)c1cnc3c(c1)[C@H]1C[C@H]1CN3)C2` [Example 198, (6aR,7aS)-N-[(2R)-5-cyano-6-{3,8-diazabicyclo[3.2.1]octan-3-yl}-8-fluoro-1,2,3,4-tetrahydronaphthalen-2-yl]-5H,6H,6aH,7H,7aH-cyclopropa[c]1,8-naphthyridine-2-carboxamide], the IC50 lay within 200 to 2000 nM.

Turning to `CO[C@H]1CN(c2cc3c(c(F)c2C#N)C[C@@H](NC(=O)c2sc4nc(C)cnc4c2N)CO3)C[C@@H]1N` [Example 199, 7-amino-N-[(3R)-7-[(3S,4S)-3-amino-4-methoxypyrrolidin-1-yl]-6-cyano-5-fluoro-3,4-dihydro-2H-1-benzopyran-3-yl]-3-methylthieno[2,3-b]pyrazine-6-carboxamide], the IC50 fell in the range of 50 to 200 nM.

As a reminder, the IC50 is the concentration needed to halve the response being measured.
